# Assay results as given in patent EP4385508A1, “FURAN FATTY ACIDS FOR ENHANCING MUSCLE MASS” (Centre de Coopération Internationale en Recherche …, priority 2022, dated 2024).
# How the values were obtained:
# ULK1 = ULK1 phosphorylation and total level by Western blot in C2C12 myotubes; type: cell-based, Mouse; settings: highest dose (50 µM)
# Protocol: Mouse myoblasts of the C2C12 cell line (ATCC) were seeded at a plating density of 7000 cells/cm2 in 6-well plates. They were grown in DMEM high glucose (4.5g/l) supplemented with gentamycin (50 µg/mL), amphotericin (50 µg/mL), and fetal calf serum (10%). Terminal differentiation was induced at cell confluence by lowering the medium serum concentration (0.5%).
# When indicated, FuFA-F2 was added to the culture medium at the indicated concentration. For the differentiation studies, FuFA-F2 was added at the confluence at the same time as the change in media condition. Three doses of FuFA-F2 were studied at a final concentration of 1, 10, or 50 µM. Human insulin was used at a concentration of 100 nM.
# Protein levels were assessed by Western blotting. Total proteins were measured using the Bio-Rad protein assay (Hercules, CA, USA) according to the manufacturer's instructions. […]
# AMP activated protein kinase (AMPK) is a crucial cellular energy sensor protein and is activated when intracellular ATP level decreases to regulate autophagy initiation (Hardie et al., 2012, Nat Rev Mol Cell Bio, Vol. 13 (4) : 251-262). […] The autophagy-related signaling was further evaluated by measuring the MTORC1 mediated phosphorylation […] at Ser757 which disrupts the interaction between ULK1 and AMPK. […] Therefore, the autophagic flux was assessed by measuring the conversion of LC3-I to LC3-II, through lipidation.
# Citrate synthase (CS) = experiment: Citrate synthase activity in quadriceps of supplemented C57Bl6 mice; type: in vivo; settings: 20mg/kg oral gavage
# Protocol: (§1) Male C57Bl/6J wild-type mice were obtained from Janvier at 12 weeks of age and were randomly assigned to one of the two groups based on body weight. Mice were housed 2 per cage and maintained on a 12-hour light/dark cycle (lights on at 7:30 pm). Food and water were provided ad libitum. Enrichment (nesting cotton squares) was provided in each cage. Mice were treated once daily by oral gavage with vehicle (50% PEG-400, 0.5% Tween 80, and 49.5% distilled water) or FuFA-F2 (20 mg/kg). All animal experiments were performed according to European directives (86/609/CEE and 2010/63/CEE) and approved by the regional animal experimentation ethics committe: Région Languedoc-Roussillon (No36). […]
# (§2) Mitochondrial respiratory complex activities were determined as previously described (Casas et al., 2008, PloS ONE, Vol. 3(6) : e2501). Citrate synthase (CS) activity was measured according to Srere (Srere et al., 1967, Science, Vol. 158(3803) : 936-937) by following the color formation of 5-thio-2-nitrobenzoic acid at 412 nm. The enzymatic activity of complex IV (cytochrome c oxidase) was measured according to Wharton and Tzagoloff (Wharton et al., 1967, Methods in Enzymology, Vol. 10, Edn Elsevier BV, Amsterdam, The Netherlands), a spectrophotometer following the oxidation of reduced cytochrome c at 550 nm, pH 7.4, and 37 °C. […]
# complex IV = experiment: Mitochondrial complex IV activity in quadriceps of supplemented C57Bl6 mice; type: in vivo; settings: 20mg/kg oral gavage, vs control
# Protocol: as §1, §2
smiles,measurement,setting,value
CCCCCc1cc(C)c(CCCCCCCCC(=O)O)o1 [FuFA-F2],ULK1 phosphorylation at Ser757,ULK1,decreased
same,total Ulk level,ULK1,also decreased
same,Citrate synthase (CS),Citrate synthase (CS),not modified
same,complex IV activity of mitochondrial respiratory chain complexes,complex IV,significant increase
